What was measured:
fet3Δftr1Δ yeast [1] = assay: Growth rescue of iron-deficient yeast with small molecules on agar plates; format: cell-based, Saccharomyces cerevisiae; conditions: low iron SD-agar plates, 10 μM FeCl3
MEL = assay: WST-8 toxicity in MEL cells; format: cell-based, mouse; conditions: MEL cells, three days, 1 μM
Experimental: (§1) Determination of small molecule-mediated toxicity in Caco-2, MEL, and/or J774 cells was performed according to manufacturer instructions using a WST-8 kit (Cayman Chemical 10010199) similar to previously reported (76) using a 1000× stock of the indicated small molecule in DMSO to give the indicated final concentration.

[2] = WST-8 toxicity in MEL cells; format: cell-based, mouse; conditions: mouse, wild type MEL cells; Wild Type MEL, WST-8 assay after ≥24 hours of incubation
Experimental: as §1

normal Caco-2 monolayers = assay: Transepithelial iron transport in normal Caco-2 monolayers; format: cell-based, Human; conditions: same concentration as in deficient system
Experimental: Media from differentiated Caco-2 monolayers (P25-50, 21-28 days post seeding) grown on PET inserts in 6-well plates was aspirated, and monolayers were rinsed with PBS. […] The monolayers were then incubated for four hours at 37° C. unless otherwise noted. A 100 μL aliquot of the basolateral fluid was removed, diluted in scintillation cocktail, and radioactivity was determined on a liquid scintillation counter to quantify relative amounts of ^55Fe transport. To determine intracellular ^55Fe, the basolateral and apical media was removed, and the monolayer was rinsed with PBS (×2). The cells were then lysed with 500 μL of 200 mM NaOH with nutator mixing overnight, and radioactivity was determined on a liquid scintillation counter after diluting the cell lysate in scintillation cocktail. All values were normalized to shControl monolayers unless otherwise noted. Absolute iron levels were determined through calibration of ^55Fe radioactivity levels with known standards and average mg of protein per membrane was determined by protein lysis with RIPA buffer containing protease inhibitors and quantified through a BCA kit according to manufacturer instructions.

fet3Δftr1Δ yeast [3] = assay: Metal selectivity in yeast (ICP-MS); format: cell-based, Saccharomyces cerevisiae; conditions: 10 μM hinokitiol, 100 μM FeCl3
Experimental: Hinokitiol-mediated changes in intracellular metal levels were determined using growth rescue conditions from FIG. 13H and an adaptation of the Fe uptake study in FIG. 1G. Specifically, wild type and fet3Δftr1Δ yeast were grown in YPD media overnight, rinsed, and incubated in SD media without FeCl3 at 30° C. for 3 hours. Yeast were then resuspended at an OD600=0.50 in SD media (50 mM MES/Tris, pH=7.0) containing 100 μM FeCl3 and either DMSO vehicle or 10 μM hinokitiol. After 2.5 hours of incubation, cells were centrifuged at 5° C., rinsed twice with cold 10 mM EDTA in 50 mM Tris/HCl buffer (pH=6.5), and once with cold metal-free water. Cells were then lyophilized for 48 hours. The lyophilized cells were digested with a 5:1 mixture of HNO3:HCl and then subjected to an automated sequential microwave digestion in a CEM Discover SP-D microwave digester. The resulting clear solution was diluted in metal-free water, and elemental analysis was performed by ICP-MS.

shDMT1 Caco-2 monolayers = assay: Iron-related protein and mRNA levels in shDMT1 Caco-2 monolayers; format: cell-based, Human; conditions: hinokitiol up to 5 μM, 25 μM FeCl3, 4 hours
Experimental: The threshold cycle values were normalized to internal control actin using primers against Fpn1 (Origene HB210988) and Fth1 (Origene HP205786) using the Pfaff1 Method and were then normalized to shDMT1 levels in the absence of hinokitiol. Caco-2 monolayers, differentiated MEL cells, or J774 cells underwent treatment as described in rescue experiments before lysis with RIPA buffer (Thermo 89901) containing protease inhibitors (Thermo 88266). Protein concentrations were determined by a BCA kit (Thermo 23225) and diluted to 2 mg/mL in the same RIPA buffer. […] Blots were thoroughly rinsed with TBST and imaged after addition of Femto Chemluminescence solution according to manufacturer instructions (Thermo Fisher 34095). For results found in FIG. 19E, protein lysate was isolated after treatment with 500 nM FeCl3 as described below. For results found in FIG. 22A, Caco-2 monolayers were treated with 25 μM FeCl3 and 0, 0.5, 1, 3, 5, 10, 25, or 50 μM hinokitiol as described below. […] Experiments for the translational and transcriptional regulated changes in endogenous proteins upon addition of increasing hinokitiol concentrations (FIG. 5F-J, FIG. 21, and FIG. 22A-L) used 25 μM of non-radioactive FeCl3 and the indicated concentration of hinokitiol (from a 1000X stock in DMSO).

[4] = Hinokitiol binding selectivity by ICP-MS; conditions: for Extracted Metal 1:1 Hino:Metals: 1 mM Hino; for Extracted Metal 1:1 Hino:Metals / Extracted Metal 10:1 Hino:Metals: 1 mM of each metal; for Extracted Metal 10:1 Hino:Metals: 60 mM Hino
Experimental: The binding selectivity for hinokitiol with multiple divalent metals was determined similar to previously described (32). […] The colored solution was allowed to incubate for 4 hours at room temperature. The solution was diluted in buffer, and extracted (×3) using 1:1 Hexanes:Ethyl Acetate. […] Control experiments were performed similar to those described above but in the absence of hinokitiol. No metal was detected in the organic layer by ICP-MS. Control experiments were also performed similar to those described above but using 60 mM hinokitiol. Metal content after extraction was compared to the initial metal content in the aqueous solution before extraction, and it was determined that the metal:hinokitiol complexes are extracted into the organic layer.

[5] = Rate of iron (III) reduction; format: physicochemical; conditions: 62.5 mM ascorbate buffer
Experimental: The rate of iron (III) reduction in the absence or presence of hinokitiol was determined using ferrozine to quantify the concentration of iron (II) similar to previously described (71). […] The absorbance at 562 nm, corresponding to Fe(ferrozine)3, was determined at the indicated time points.

wild type (+/+) mice = assay: 59Fe gut absorption in wild type mice; format: in vivo; conditions: 1.5 mg/kg, after one hour
Experimental: Temporal live cell imaging of labile iron levels in shDMT1 Caco-2 monolayers was performed after staining of Caco-2 monolayers with calcein green-AM (5 μM) in the apical and basolateral liquid for 30 minutes in pH=7.4 DMEM. […] Final volume administered was 1.5 mL/kg for each mouse, correcting for individual body weight. […] […] Radioactivity was quantified by gamma counting and calculated as the percentage of gavaged dose (±SEM). Experiments were performed with 4 genotyped-matched mice/day; preliminary analysis determined there were no gender effects on uptake of ^59Fe after intragastric gavage; mixed genders were used in the experiments shown.

[6] = tested on: wild type J774 macrophages; assay: 55Fe release from wild type J774 macrophages; format: cell-based, mouse; conditions: same concentration as in deficient system
Experimental: J774 cells were grown in 12-well plates to ˜80% confluency. The cells were then treated with vehicle or hepcidin in fresh J774 Complete media (1 mL) and incubated at 37° C. for 1 hour. After incubation, the media was aspirated, and then a ^55Fe2Tf (50 nM) solution in J774 Complete media (1 mL) containing vehicle or hepcidin was added. The cells were incubated at 37° C. for 10 minutes, and the media was removed. The cells were rinsed with PBS (×2), and then rinsed with J774 Complete media (1 mL) for 10 minutes at 37° C. The media was aspirated, and J774 Complete media (1 mL) containing DMSO or small molecule (5 μM unless otherwise noted, 1000X dilution) was then added in the presence or absence of hepcidin. At the indicated times, aliquots (<100 μL) of the media were removed, diluted in scintillation cocktail, and radioactivity was determined by liquid scintillation counting. After completion of the experiment, the media was removed, the cells were rinsed with PBS, and the cells were lysed with 500 μL of 200 mM NaOH at 37° C. for 2 hours with continuous shaking (50 rpm). The cell lysate was diluted in scintillation cocktail and intracellular ^55Fe levels were determined by liquid scintillation counting. The % ^55Fe release was determined by the ratio of extracellular ^55Fe to total (intracellular+ extracellular) ^55Fe at the indicated times.

CC(C)c1cccc(=O)c(O)c1 [hinokitiol]
growth rescue of fet3Δftr1Δ yeast (fet3Δftr1Δ yeast [1]): highly effective | observable toxicity (MEL): without observable toxicity | EC90 [2]: 24 µM | effect on transepithelial iron transport in wild type system (normal Caco-2 monolayers): negligible effects | intracellular iron levels relative to vehicle-treated controls (fet3Δftr1Δ yeast [3]): increased | intracellular levels of manganese, cobalt, nickel, zinc, and copper (fet3Δftr1Δ yeast [3]): unchanged | Fpn1 mRNA and protein levels (shDMT1 Caco-2 monolayers): decreased | Hif1α and Hif2α levels (shDMT1 Caco-2 monolayers): similarly decreased | IRP2 protein levels (shDMT1 Caco-2 monolayers): decreased | TfR1 (3′-IRE) protein levels (shDMT1 Caco-2 monolayers): decreased | ferritin subunits (5′-IREs) protein levels (shDMT1 Caco-2 monolayers): increased | Cu^II competitively bound relative to Fe^II ([4]; 1:1 Hino:Metals): 10 fold | Extracted Metal 1:1 Hino:Metals ([4]; Co^II): 0.001 ± 0.000 µmol | Extracted Metal 10:1 Hino:Metals ([4]; Co^II): 41 ± 0.3 µmol | Extracted Metal 1:1 Hino:Metals ([4]; Cu^II): 45.15 ± 6.46 µmol | Extracted Metal 10:1 Hino:Metals ([4]; Cu^II): 46 ± 0.2 µmol | Extracted Metal 1:1 Hino:Metals ([4]; Fe^II): 4.80 ± 0.61 µmol | Extracted Metal 10:1 Hino:Metals ([4]; Fe^II): 46 ± 0.4 µmol | Extracted Metal 1:1 Hino:Metals ([4]; Mn^II): 0.0003 ± 0.0001 µmol | Extracted Metal 10:1 Hino:Metals ([4]; Mn^II): 37 ± 0.8 µmol | Extracted Metal 10:1 Hino:Metals ([4]; Ni^II): 35 ± 0.3 µmol | Extracted Metal 1:1 Hino:Metals ([4]; Zn^II): 0.0015 ± 0.0006 µmol | Extracted Metal 10:1 Hino:Metals ([4]; Zn^II): 38 ± 0.2 µmol | reduction of iron (III) in a reducing environment [5]: slowed | rate of iron absorption (wild type (+/+) mice): statistically significant increase | effect on iron release in wild type system [6]: negligible effects

Source: US12084411B2, “Hinokitiol analogues, methods of preparing and pharmaceutical compositions thereof” (The Board of Trustees of the University of Illinois, priority 2018, dated 2024)
